Reference: patent US20170137481A1, “Use of Cell-Permeable Peptide Inhibitors of the JNK Signal Transduction Pathway for the Treatment of Various Diseases” (Xigen Inflammation Ltd., priority 2014, published 2017)
Marks after values point to notes of the source that are not given here.

Tests used:
[1] = tested on: Endotoxin-Induced Uveitis in Lewis rats; assay: Endotoxin-Induced Uveitis (EIU), action duration after subconjunctival administration; format: in vivo, rat
Excerpt: The aim of this study was to evaluate the duration of action of SDD-1002 following sub-conjunctival administration in a rat model of EIU.
90 male Lewis rats were used, age approximately 6-8 weeks (at the induction), 4 weeks (at the injection for the Day-28), 5 weeks (at the injection for the Day-21), 6 weeks (at the injection for the Day-14, Day-7 and for the Day 0), 7 weeks (at the injection for Day-2 and Day-1), and housed by five in standard cages. Animals were allocated to the following groups: Group No. Treatment Dose Time-point
Thus, each animal received a single subconjunctival injection of either XG-102 (20 μg/eye), saline (0.9% NaCl) vehicle control or Solumedrol® (20 μg/eye) into each eye. Methylprednisolone (Solumedrol®) is most commonly used in uveitis as sub-conjunctival treatment.
On Day 0, ocular inflammation was induced by a single footpad injection of liposaccharide (LPS, 1 mg/kg, 0.5 mL/kg Sigma # L6511) on anesthetized animals. LPS powder was reconstituted the day of induction. XG-102 was administered by a single injection (20 microgram/5 microL) in each eye on Day-28 or Day-21 or Day-14 or Day-7 or Day-2 or Day-1 or Day 0 (immediately before induction). Saline control and reference item (Solumedrol®; 20 μg/eye) were administered by a single injection in each eye on Day 0 (immediately before induction).
Animals were examined with a slit-lamp before XG-102 administration (baseline) before induction (Day 0) then 24 h after induction (Day 1). The inflammation was graded using a scoring system as described by Devos A., Van Haren M., Verhagen C., Hoek Zema R., Kijlstra A: Systemic anti-tumor necrosis factor antibody treatment exacerbates Endotoxin Induced Uveitis in the rat. Exp. Eye. Res. 1995; 61: 667-675. Briefly, flare, miosis and hypopion were scored for absence (0), or presence (1), iris hyperemia and cells in the anterior chamber were scored for absence (0), or mild (1) or severe presence (2). The maximum score (sum of the five parameter scores) was 7.
At the end of the evaluation (24 h after induction), animals were euthanized by intravenous injection of overdosed pentobarbital. The aqueous humor was collected immediately for each eye. For quantification of Cellular Infiltration in Aqueous Humor (AH), the sample was diluted 10-fold with PBS before detection. The number of infiltrated cells was manually counted after Giemsa staining under microscope.

[2] = tested on: patients who underwent complex ocular surgery; assay: Phase II post-surgery intraocular inflammation, safety
Excerpt: The criteria for evaluation of safety were:
An AE is therefore any unfavorable and unintended sign, symptom or disease temporally associated with the use of a medicinal product, whether or not considered related to the medicinal product.
The present study was a double-blind study. All patients who were randomized and for whom the sub-conjunctival injection was started are included in the safety analysis by dose group. […] If the study treatment eye drops were stopped prematurely (i.e. before day 21), the patients concerned continued follow-up until day 28, in accordance with the study protocol.
Investigators assessed (in a blinded manner) the relationship of each reported AE to any of the study treatments. An event was considered to be related to study treatment if the Investigator ticked either ‘possible’ or ‘probable’ as the reply to this question.

[3] = tested on: post-surgery intraocular inflammation; assay: Phase II post-surgery intraocular inflammation, efficacy; format: in vivo, human; details: for Cleared ocular inflammation (cell grade 0 and flare grade 0): Yes: Dexamethasone
Method: The objectives of the present study were to evaluate the efficacy and safety of a single sub-conjunctival injection of XG-102 90 or 900 μg administered within maximally 3 hours after the end of the surgical procedure compared to dexamethasone eye drops administered 4 times/day for 21 days in post-operative intraocular inflammation.
In accordance with this trial's primary objective, the primary outcome was evaluated by the mean anterior chamber cells grade at day 28 post-administration of the sub-conjunctival injection of study treatment comparing XG-102 900 μg with dexamethasone eye drops.
The present trial was a randomized (1:1:1), controlled, double-blind, multicenter non-inferiority clinical trial with three parallel groups of equal size. Randomization, which was blocked by center, was performed using a web-based, secure, randomization system. Eligible patients were male or female (post-menopausal, or sterile by tubal ligation or hysterectomy), who were >18 years of age and who had undergone one of the following ocular surgeries: (a) anterior and posterior segment combined surgery which may include surgery for: cataract and retinal detachment, cataract and epimacular membrane and/or cataract and macular hole or (b) glaucoma surgery or (c) complex posterior segment surgery or (d) complicated intraocular surgery which may include cataract surgery associated with diabetic retinopathy and/or complicated retinal detachment ocular surgery. Patients were not eligible to participate if any of the following exclusion criteria was present at the moment of randomization:
The study protocol planned that 138 patients would be randomized and administered the sub-conjunctival injection of study treatment. […] Patients were randomly allocated to either XG-102 90 or 900 μg which was administered as a single, sub-conjunctival injection of 250 μl within maximally 3 hours after the end of the eye surgery or to dexamethasone eye drops, which were instilled 4 times per day for 21 days. The first study treatment eye drop was instilled within maximally 15 minutes after the sub-conjunctival injection of study treatment. In order to maintain the blinding, patients randomized to the XG-102 group received eye drops containing a NaCl 0.9% solution and patients randomized to the dexamethasone group were administered a sub-conjunctival injection containing NaCl 0.9%. Patients were followed for, in total, 28 (±5) days after administration of the sub-conjunctival injection of study treatment.
Patients were randomized to one of the three study groups: • 1. A single sub-conjunctival injection of XG-102 90 μg+placebo eye drops 4 times/day for 21 days or • 2. A single sub-conjunctival injection of XG-102 900 μg+placebo eye drops 4 times/day for 21 days or • 3. A single sub-conjunctival injection of NaCl 0.9%+dexamethasone eye drops 4 times/day for 21 days.
The primary objective was evaluated by the mean anterior chamber cells grade at day 28 post-administration of the sub-conjunctival administration of study treatment. The criteria for evaluation of the primary objective was
The ophthalmology examinations were performed at baseline (i.e. either on the day of surgery, but before the surgery was performed). […] In order to reduce operator variability, the sites were instructed that, where possible, the same operator should perform all ophthalmology examinations for the same patient throughout the trial. The ophthalmology measurements were performed in accordance with the study-specific instructions. The latter were reviewed and discussed with the site teams during the initiation visit and during each monitoring visit. For the determination of the cell/flare count and cell/flare grade, the SUN Working Group's consensus was used by the sites using the SUN Working group definitions (“Standardization of Uveitis Nomenclature for Reporting Clinical Data. Results of the First International Workshop.,” American Journal of Ophthalmology, vol 140, no. 3, pp. 509-516, 2005). […]

[4] = molecular target: JNK of primary mouse cortical neuron cultures; assay: cell-based or functional assay
[5] = tested on: light-induced photoreceptor cell death in Sprague-Dawley rats; assay: Photoreceptor light damage in albino rat (ERG, ONL thickness); format: in vivo
Method: The aim of this study was to investigate the dose effect of XG-102 on light-induced photoreceptor cell death.
Test item (XG-102: 30 mg/ml, 3 mg/ml, and 0.3 mg/ml) and vehicle (0.9% NaCl) were administered by intravitreal injection in right eyes the day before induction. The reference (Phenyl-N-test-Butylnitrone (PBN) (50 mg/kg)) and vehicle were intraperitoneally injected 30 min before induction then, 3 times during 12 hours of light exposition, then once after induction. Animals were placed in constant light (7000 lux) for 24 h. Electroretinograms (ERG) were recorded before light treatment and on days 9, 16 and 23 after induction. Eyes were then taken for histology and outer nuclear layer (ONL) thickness assessment. The table below summarizes the allocation of animals in treatment groups:
For the intravitreal injection animals were anesthetized by intramuscular injection of a mixture of xylazine/ketamine. Test item (5 μl) and vehicle (5 μl) were injected in the right eye. The injection was performed under an operating microscope in the supratemporal area at pars plana using a 33G-needle mounted on a 50 μl Hamilton. The filled syringe was mounted into the UltraMicroPump III to achieve accurate injection in microliter range. Reference and vehicle were injected intraperitoneally at a dose volume of 2.5 ml/kg using a 30G-needle mounted on a 1 ml-syringe.
Light Exposure: The rats that had been dark-adapted overnight were exposed for 24 hours to a continuous white fluorescent light (7000 lx) in clear plastic cages. Each cage contained one rat. After exposure, the rats returned to rearing cyclic light conditions.
The body weight of all animals was recorded before the start of the study then at the end of the study. Each day, the general behavior and the aspect of all animals were observed. ERG was recorded before induction and 7, 14 and 21 days after cessation of exposure (Days 9, 16 and 23) on right eyes of dark-adapted and anesthezied animals. The latency times (for a- and b-wave) and the a-wave and b-wave amplitudes were measured for each ERG; the latency times were expressed as millisecond and the a-wave and b-wave as a percentage of the baseline value obtained before light exposure. 15 min before measurement 10 μl Mydriaticum® (0.5% tropicamide) were instilled for pupillary dilatation.
ERG Parameters: • Color: white maximum. • Maximum intensity: 2.6 cd.s/m^2 (0 dB); Duration 0.24 ms; number of flash: 1. • Filter: 50 Hz. • Impedence Threshold: 90 kΩ.
Measurement of the ONL Thickness: After ERG testing, animal was euthanized by an overdose of pentobarbital and the right eyes were enucleated, fixed and embedded in paraffin. Sections (5 μm thick) were performed along the vertical meridian and stained with Trichrome-Masson. The vertical meridian included the optic nerve.
Group mean values and standard deviation were calculated. A statistical Mann and Whitney test was used to evaluate the differences between pair-wise groups. For comparison between time-point into each vehicle groups, a Friedman test was used.

[6] = 20 μg/eye, both eyes treated on the day of induction, 24 h after LPS
[7] = 20 μg/eye, both eyes treated on the day of induction, vs vehicle
[8] = Dexamethasone group, blinded assessment

C[C@H]1C[C@@H]2[C@H]([C@@H](O)C[C@@]3(C)[C@H]2CC[C@]3(O)C(=O)CO)[C@@]2(C)C=CC(=O)C=C12 [methylprednisolone, Methylprednisolone]
clinical score, mean ([1]; 20 μg/eye on Day 0): 2.0±0.2
clinical score, median ([1]; 20 μg/eye on Day 0): 2
reduction of clinical score ([1]; 20 μg/eye on Day 0): 50%
EIU clinical score, Mean ± SEM (n = 20) [1, 6]: 2.0 ± 0.2
EIU clinical score, Median [1, 6]: 2.0
Inflammatory cells infiltrated into aqueous humor, Mean ± SEM (n = 20) [1, 6]: 3170 ± 276 cells/μL
Inflammatory cells infiltrated into aqueous humor, Median [1, 6]: 3385 cells/μL
Reduction of clinical scores [1, 7]: 50%
Reduction of leucocytes [1, 7]: 2%

C[C@@H]1C[C@H]2[C@@H]3CCC4=CC(=O)C=C[C@]4(C)[C@@]3(F)[C@@H](O)C[C@]2(C)[C@@]1(O)C(=O)CO [Dexamethasone, reference compound]
AEs possibly or probably related to study treatment as assessed by the Investigator ([2]; Dexamethasone (N = 50)): 15 Total # events
Adverse events which led to an interruption of study treatment ([2]; Dexamethasone dose group): 3 (5.5%) number of events (% of reported events)
Reported AEs by severity: Mild ([2]; Dexamethasone dose group): 42 (76.4%) number of events (%)
Reported AEs by severity: Moderate ([2]; Dexamethasone dose group): 9 (16.4%) number of events (%)
Reported AEs by severity: Severe ([2]; Dexamethasone dose group): 4 (7.3%) number of events (%)
AEs considered by the Investigator to be related to Dexamethasone [2, 8]: 2 (3.6%) # events (%)
AEs considered by the Investigator to be related to XG-102 [2, 8]: 13 (23.64%) # events (%)
AEs possibly or probably related to study medication ([2]; dexamethasone group): 15 events
Intraocular pressure increased, patients ([2]; dexamethasone group): 14%
events in SOC EYE DISORDERS ([2]; dexamethasone group): 30 events
events resulting in premature withdrawal of study treatment eye drops ([2]; dexamethasone group): 3 events
patients with SAE ([2]; dexamethasone group): 2 patients
patients with event in SOC EYE DISORDERS ([2]; dexamethasone group): 16 (32%)
percentage of patients with an AE within 24 hours after administration ([2]; dexamethasone group): 30%
total number of AEs reported ([2]; dexamethasone group): 55
Cleared ocular inflammation (cell grade 0 and flare grade 0): Yes ([3]; Visit 1 (21 hours), Full analysis population): 4 (8.2%) # patients (%)
Cleared ocular inflammation (cell grade 0 and flare grade 0): Yes ([3]; Visit 1 (21 hours), Per-protocol population): 4 (8.2%) # patients (%)
Cleared ocular inflammation (cell grade 0 and flare grade 0): Yes ([3]; Visit 2 (7 days), Full analysis population): 9 (18.8%) # patients (%)
Cleared ocular inflammation (cell grade 0 and flare grade 0): Yes ([3]; Visit 2 (7 days), Per-protocol population): 9 (18.8%) # patients (%)
Cleared ocular inflammation (cell grade 0 and flare grade 0): Yes ([3]; Visit 3 (14 days), Full analysis population): 10 (20.4%) # patients (%)
Cleared ocular inflammation (cell grade 0 and flare grade 0): Yes ([3]; Visit 3 (14 days), Per-protocol population): 10 (21.3%) # patients (%)
Cleared ocular inflammation (cell grade 0 and flare grade 0): Yes ([3]; Visit 4 (28 days), Full analysis population): 17 (35.4%) # patients (%)
Cleared ocular inflammation (cell grade 0 and flare grade 0): Yes ([3]; Visit 4 (28 days), Per-protocol population): 15 (34.9%) # patients (%)
percentage of patients for whom rescue medication was introduced ([3]; eye drops 4 times/day, 21 days): 4.0%

D-TAT-IB1(s) (peptide)
JNK activation (immunoblot) in Aβ42-stressed PKR-/- cortical neurons; peptide at 10 µM [4]: -35%
JNK activity (pJNK/JNK ratio, immunoblot) in cortical neurons under H2O2 oxidative stress; peptide at 10 µM [4]: 45%
c-Jun phosphorylation (immunoblot) in Aβ42-stressed WT cortical neurons; peptide at 10 µM [4]: -74%

CC(C)(C)[N+]([O-])=Cc1ccccc1 [PBN, Phenyl-N-tert-Butylnitrone, reference compound]
recovery of the a-wave (% of baseline) ([5]; 50 mg/kg i.p., Day 9): 70.4%
recovery of the b-wave (% of baseline) ([5]; 50 mg/kg i.p., Day 9): 100%
recovery of the a-wave (% of baseline) ([5]; 50 mg/kg i.p., Day 16): 79.6%
recovery of the b-wave (% of baseline) ([5]; 50 mg/kg i.p., Day 16): 103.6%
loss of mean ONL thickness versus untreated eyes ([5]; 50 mg/kg i.p., Day 23): 16%
recovery of the a-wave (% of baseline) ([5]; 50 mg/kg i.p., Day 23): 76.2%
recovery of the b-wave (% of baseline) ([5]; 50 mg/kg i.p., Day 23): 102.4%
ERG B-wave amplitude, percent of baseline, Mean ± SD ([5]; rat, in vivo, ip, 50 mg/kg): 100 ± 18.6%
ONL thickness ([5]; rat, in vivo, ip, 50 mg/kg): 34.05 ± 4.00 μm
ONL thickness Loss (% comparison with control non-induced eye) ([5]; rat, in vivo, ip, 50 mg/kg): 16%
